# Measured values published in patent US20020137929A1, “1 - (3-heterocyclylphenyl) isothiourea, -isourea, -guanidine and -amidine herbicidal agents” (Intellectual Property Department, BASF Aktiengesellschaft, priority 1998, published 2002).
# How the values were obtained:
# SETVI (Foxtail, Green) = experiment: Preemergence herbicidal evaluation; assay type: in vivo, Setaria viridis; conditions: preemergence, rated 4-5 weeks after treatment, 0-9 scale
# Summary of the method: (§1)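 Each species is sown separately in potting soil over roughly an inch of soil before any emergence. The soil surface then receives an aqueous acetone spray delivering about 0.0156 to 0.500 kg/ha of compound. After four to five weeks, injury is scored from 0 to 9 relative to a control.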
# [1] = test system: SAGPY (Arrowhead (Pygmaea)); experiment: Postemergence weed control under flooded paddy conditions; assay type: in vivo, Sagittaria pygmaea; conditions: postemergence weeds, rated 3 to 4 weeks after treatment
# Summary of the method: (§2)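 Herbicidal effect is judged by eye on a 0–9 scale versus control, 3–4 weeks after dosing. Dosing is into flood water kept 1.5–3 cm over the soil, at about 0.0313–0.500 kg/ha in aqueous/acetone 50/50 v/v, on 3–5 cm weeds and 1.5–2.5-leaf rice seedlings.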
# [2] = test system: TRZAWR (Wheat, Winter, cv Riband); experiment: Postemergence herbicidal evaluation; assay type: in vivo, Triticum aestivum; conditions: postemergence
# Summary of the method: (§3)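 Scores (0–9) reflect plant stand, vigor, malformation, size, chlorosis and general appearance relative to control, read 4 to 5 weeks after treatment and averaged where tests were repeated. Application: about 0.0156–0.500 kg/ha sprayed at 40 psi onto two-week seedlings.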
# [3] = test system: ECHORC (Watergrass (Calif.)); experiment: Preemergence weed control under flooded paddy conditions; assay type: in vivo, Echinochloa oryzoides; conditions: rated 3-4 weeks after treatment
# Summary of the method: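 First, seeds or propagules go into the top 0.5 cm of silt loam; next, water is held 1.5 to 3 cm over the soil; then compound (50/50 acetone/water) is pipetted into it at about 0.0313 to 0.500 kg/ha; finally plants are rated visually 0-9 after three to four weeks.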
# [4] = test system: ECHORC (Watergrass (Calif.)); experiment: Postemergence weed control under flooded paddy conditions; assay type: in vivo, Echinochloa oryzoides; conditions: postemergence weeds, rated 3 to 4 weeks after treatment
# Summary of the method: as §2
# CYPSE (Flatsedge) = experiment: Preemergence weed control under flooded paddy conditions; assay type: in vivo, Cyperus serotinus; conditions: rated 3-4 weeks after treatment
# Summary of the method: (§4)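 Silt loam, seeds in top 0.5 cm; flood held 1.5-3 cm; test cpd as acetone/water 50/50 into flood water, ~0.0313-0.500 kg/ha a.i.; greenhouse 3-4 wk; visual 0-9 score vs control.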
# MOOVA (Monochoria) = experiment: as above; assay type: in vivo, Monochoria vaginalis; conditions: rated 3-4 weeks after treatment
# Summary of the method: as §4
# AMBEL (Ragweed, Common) = experiment: Postemergence herbicidal evaluation; assay type: in vivo, Ambrosia artemisifolia; conditions: postemergence
# Summary of the method: as §3
# CASOB (Sicklepod) = experiment: Postemergence herbicidal evaluation; assay type: in vivo, Cassia obtusifolia; conditions: postemergence
# Summary of the method: as §3
# [5] = test system: GLXMAW (Soybean, Williams); experiment: Postemergence herbicidal evaluation; assay type: in vivo, Glycine max, (L.) Merr. cv Williams; conditions: postemergence
# Summary of the method: as §3
# GALAP (Galium) [6] = experiment: Postemergence herbicidal evaluation; assay type: in vivo, Galium aparine; conditions: postemergence
# Summary of the method: as §3
# ORYSAT (Rice, Tebonnet) = experiment: Preemergence herbicidal evaluation; assay type: in vivo, Oryza sativa, (L.) Tebonnet; conditions: preemergence, rated 4-5 weeks after treatment, 0-9 scale
# Summary of the method: as §1
# GALAP (Galium) [7] = experiment: Preemergence herbicidal evaluation; assay type: in vivo, Galium aparine; conditions: preemergence, rated 4-5 weeks after treatment, 0-9 scale
# Summary of the method: as §1
# [8] = test system: SAGPY (Arrowhead (Pygmaea)); experiment: Preemergence weed control under flooded paddy conditions; assay type: in vivo, Sagittaria pygmaea; conditions: rated 3-4 weeks after treatment
# Summary of the method: as §4
structure (smiles),measurement,setting,value
"C=CCN1C(=O)C(CC(=O)NC)SC1=Nc1cc(-n2c(=O)cc(C(F)(F)F)n(C)c2=O)c(F)cc1Cl (centres unmarked) [Compound 84, 3-Allyl-2-{{2-chloro-5-[3,6-dihydro-3-methyl-2,6-dioxo-4-(trifluoromethyl)-1(2H)-pyrimidinyl]-4-fluorophenyl}imino}-N-methyl-4-oxo-5-thiazolidineacetamide]",SETVI rating,"SETVI (Foxtail, Green); 0.0156 kg/ha",0.0
same,SETVI rating,"SETVI (Foxtail, Green); 0.0313 kg/ha",0.0
same,SETVI rating,"SETVI (Foxtail, Green); 0.0625 kg/ha",0.0
same,SETVI rating,"SETVI (Foxtail, Green); 0.1250 kg/ha",3.0
same,SETVI rating,"SETVI (Foxtail, Green); 0.2500 kg/ha",9.0
same,SETVI rating,"SETVI (Foxtail, Green); 0.5000 kg/ha",9.0
same,Herbicidal rating SAGPY,[1]; Rate 0.0313 kg/ha,2.0
same,Herbicidal rating SAGPY,[1]; Rate 0.0625 kg/ha,6.0
same,Herbicidal rating SAGPY,[1]; Rate 0.1250 kg/ha,7.0
same,Herbicidal rating SAGPY,[1]; Rate 0.2500 kg/ha,9.0
same,TRZAWR herbicidal rating,[2]; rate 0.0156 kg/ha,3.0
same,TRZAWR herbicidal rating,[2]; rate 0.0313 kg/ha,3.5
same,TRZAWR herbicidal rating,[2]; rate 0.0625 kg/ha,4.5
same,TRZAWR herbicidal rating,[2]; rate 0.1250 kg/ha,5.0
same,ECHORC herbicidal effect rating,[3]; 0.0313 kg/ha,4.0
same,ECHORC herbicidal effect rating,[3]; 0.0625 kg/ha,5.0
same,ECHORC herbicidal effect rating,[3]; 0.1250 kg/ha,7.0
same,ECHORC herbicidal effect rating,[3]; 0.2500 kg/ha,9.0
same,Herbicidal rating ECHORC,[4]; Rate 0.0313 kg/ha,4.0
same,Herbicidal rating ECHORC,[4]; Rate 0.0625 kg/ha,5.0
same,Herbicidal rating ECHORC,[4]; Rate 0.1250 kg/ha,7.0
same,Herbicidal rating ECHORC,[4]; Rate 0.2500 kg/ha,9.0
same,CYPSE herbicidal effect rating,CYPSE (Flatsedge); 0.0313 kg/ha,0.0
same,CYPSE herbicidal effect rating,CYPSE (Flatsedge); 0.0625 kg/ha,3.0
same,CYPSE herbicidal effect rating,CYPSE (Flatsedge); 0.1250 kg/ha,9.0
same,CYPSE herbicidal effect rating,CYPSE (Flatsedge); 0.2500 kg/ha,9.0
same,MOOVA herbicidal effect rating,MOOVA (Monochoria); 0.0313 kg/ha,9.0
same,MOOVA herbicidal effect rating,MOOVA (Monochoria); 0.0625 kg/ha,9.0
same,MOOVA herbicidal effect rating,MOOVA (Monochoria); 0.1250 kg/ha,9.0
same,MOOVA herbicidal effect rating,MOOVA (Monochoria); 0.2500 kg/ha,9.0
same,AMBEL herbicidal rating,"AMBEL (Ragweed, Common); rate 0.0156 kg/ha",4.0
same,AMBEL herbicidal rating,"AMBEL (Ragweed, Common); rate 0.0313 kg/ha",9.0
same,AMBEL herbicidal rating,"AMBEL (Ragweed, Common); rate 0.0625 kg/ha",9.0
same,AMBEL herbicidal rating,"AMBEL (Ragweed, Common); rate 0.1250 kg/ha",9.0
same,CASOB herbicidal rating,CASOB (Sicklepod); rate 0.0156 kg/ha,0.0
same,CASOB herbicidal rating,CASOB (Sicklepod); rate 0.0313 kg/ha,0.0
same,CASOB herbicidal rating,CASOB (Sicklepod); rate 0.0625 kg/ha,0.0
same,CASOB herbicidal rating,CASOB (Sicklepod); rate 0.1250 kg/ha,3.0
same,GLXMAW herbicidal rating,[5]; rate 0.0156 kg/ha,4.0
same,GLXMAW herbicidal rating,[5]; rate 0.0313 kg/ha,4.5
same,GLXMAW herbicidal rating,[5]; rate 0.0625 kg/ha,4.5
same,GLXMAW herbicidal rating,[5]; rate 0.1250 kg/ha,8.5
same,GALAP herbicidal rating,GALAP (Galium) [6]; rate 0.0156 kg/ha,1.0
same,GALAP herbicidal rating,GALAP (Galium) [6]; rate 0.0313 kg/ha,2.0
same,GALAP herbicidal rating,GALAP (Galium) [6]; rate 0.0625 kg/ha,4.0
same,GALAP herbicidal rating,GALAP (Galium) [6]; rate 0.1250 kg/ha,7.0
same,ORYSAT rating,"ORYSAT (Rice, Tebonnet); 0.0156 kg/ha",0.0
same,ORYSAT rating,"ORYSAT (Rice, Tebonnet); 0.0313 kg/ha",0.0
same,ORYSAT rating,"ORYSAT (Rice, Tebonnet); 0.0625 kg/ha",0.0
same,ORYSAT rating,"ORYSAT (Rice, Tebonnet); 0.1250 kg/ha",0.0
same,ORYSAT rating,"ORYSAT (Rice, Tebonnet); 0.2500 kg/ha",3.0
same,ORYSAT rating,"ORYSAT (Rice, Tebonnet); 0.5000 kg/ha",9.0
same,GALAP rating,GALAP (Galium) [7]; 0.0156 kg/ha,0.0
same,GALAP rating,GALAP (Galium) [7]; 0.0313 kg/ha,0.0
same,GALAP rating,GALAP (Galium) [7]; 0.0625 kg/ha,0.0
same,GALAP rating,GALAP (Galium) [7]; 0.1250 kg/ha,0.0
same,GALAP rating,GALAP (Galium) [7]; 0.2500 kg/ha,5.0
same,GALAP rating,GALAP (Galium) [7]; 0.5000 kg/ha,5.0
same,SAGPY herbicidal effect rating,[8]; 0.0313 kg/ha,2.0
same,SAGPY herbicidal effect rating,[8]; 0.0625 kg/ha,6.0
same,SAGPY herbicidal effect rating,[8]; 0.1250 kg/ha,7.0
same,SAGPY herbicidal effect rating,[8]; 0.2500 kg/ha,9.0
